Results published in BindingDB's records for doi:10.1016/j.bmcl.2004.12.007 (Cerep, 2005).

Molecular target: Integrin alpha-L/beta-2 (Homo sapiens, UniProt P05107+P20701)
Assay: Inhibitory concentration against leukocyte function-associated antigen-1 in HSB-2 human lymphoblast and H1HeLa cell adhesion assay

Integrin alpha-L/beta-2, sequence (P20701 whole entry): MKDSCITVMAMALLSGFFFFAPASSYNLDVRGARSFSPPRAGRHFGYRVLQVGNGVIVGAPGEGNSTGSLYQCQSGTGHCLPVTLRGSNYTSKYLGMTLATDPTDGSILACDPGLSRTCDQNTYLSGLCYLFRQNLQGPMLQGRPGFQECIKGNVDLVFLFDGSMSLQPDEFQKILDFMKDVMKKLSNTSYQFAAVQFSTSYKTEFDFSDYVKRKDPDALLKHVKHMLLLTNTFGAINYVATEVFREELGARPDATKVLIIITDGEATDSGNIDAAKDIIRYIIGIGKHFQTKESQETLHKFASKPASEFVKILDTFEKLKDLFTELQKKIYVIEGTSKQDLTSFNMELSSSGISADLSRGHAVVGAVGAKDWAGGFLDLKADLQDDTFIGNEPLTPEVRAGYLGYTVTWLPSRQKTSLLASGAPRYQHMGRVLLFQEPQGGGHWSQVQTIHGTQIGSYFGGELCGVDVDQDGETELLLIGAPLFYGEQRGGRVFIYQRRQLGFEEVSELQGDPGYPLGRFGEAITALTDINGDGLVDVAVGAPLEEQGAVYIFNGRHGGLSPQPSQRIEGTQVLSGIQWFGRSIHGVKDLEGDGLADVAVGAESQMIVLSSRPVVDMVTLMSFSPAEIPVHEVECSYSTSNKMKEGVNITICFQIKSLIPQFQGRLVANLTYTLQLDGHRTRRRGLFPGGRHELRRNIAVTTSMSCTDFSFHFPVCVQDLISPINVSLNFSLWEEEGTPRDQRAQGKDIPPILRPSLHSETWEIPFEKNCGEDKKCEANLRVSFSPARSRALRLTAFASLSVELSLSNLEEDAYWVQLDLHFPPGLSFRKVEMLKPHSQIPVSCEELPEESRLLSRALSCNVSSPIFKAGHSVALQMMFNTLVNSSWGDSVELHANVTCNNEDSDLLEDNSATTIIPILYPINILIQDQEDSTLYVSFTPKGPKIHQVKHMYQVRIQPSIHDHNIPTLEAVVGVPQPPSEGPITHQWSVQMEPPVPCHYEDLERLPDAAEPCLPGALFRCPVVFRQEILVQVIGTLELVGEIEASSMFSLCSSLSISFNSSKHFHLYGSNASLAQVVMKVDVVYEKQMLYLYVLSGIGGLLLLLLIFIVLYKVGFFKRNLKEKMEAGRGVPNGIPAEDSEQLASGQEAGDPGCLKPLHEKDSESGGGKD
Integrin alpha-L/beta-2, sequence (P05107 whole entry H354Q): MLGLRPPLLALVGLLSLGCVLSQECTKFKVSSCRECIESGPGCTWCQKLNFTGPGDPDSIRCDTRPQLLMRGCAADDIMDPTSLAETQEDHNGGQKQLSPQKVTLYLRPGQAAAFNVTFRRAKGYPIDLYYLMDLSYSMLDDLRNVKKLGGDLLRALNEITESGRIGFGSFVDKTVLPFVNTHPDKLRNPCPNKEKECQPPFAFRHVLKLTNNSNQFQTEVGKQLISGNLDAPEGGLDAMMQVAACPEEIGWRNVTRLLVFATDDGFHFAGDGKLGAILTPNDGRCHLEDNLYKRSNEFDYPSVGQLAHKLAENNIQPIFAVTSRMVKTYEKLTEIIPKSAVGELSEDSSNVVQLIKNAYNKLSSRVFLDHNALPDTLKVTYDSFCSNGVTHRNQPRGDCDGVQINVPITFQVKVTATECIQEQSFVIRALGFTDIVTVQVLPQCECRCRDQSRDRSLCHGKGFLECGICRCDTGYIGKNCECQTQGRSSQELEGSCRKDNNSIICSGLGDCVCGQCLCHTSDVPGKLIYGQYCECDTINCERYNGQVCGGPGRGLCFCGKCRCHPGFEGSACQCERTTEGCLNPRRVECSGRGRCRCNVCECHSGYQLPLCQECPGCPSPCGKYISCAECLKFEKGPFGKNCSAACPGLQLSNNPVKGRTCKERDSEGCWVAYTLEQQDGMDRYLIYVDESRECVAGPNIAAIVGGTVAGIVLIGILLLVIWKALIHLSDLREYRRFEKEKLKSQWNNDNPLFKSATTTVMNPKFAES

| SMILES | IC50 |
| --- | --- |
| CN(Cc1cccc(-c2ccc(Br)cc2)c1)[C@H]1Cc2c(O)n(-c3cc(Cl)cc(Cl)c3)c(=O)n2C1 [(6S,7aS)-6-[(4''-Bromo-biphenyl-3-ylmethyl)-methyl-amino]-2-(3,5-dichloro-phenyl)-tetrahydro-pyrrolo[1,2-c]imidazole-1,3-dione] | 175 nM |
| N#Cc1ccc(-c2cccc(CN[C@H]3Cc4c(O)n(-c5cc(Cl)cc(Cl)c5)c(=O)n4C3)c2)cc1 [3''-{[(6S,7aS)-2-(3,5-Dichloro-phenyl)-1,3-dioxo-hexahydro-pyrrolo[1,2-c]imidazol-6-ylamino]-methyl}-biphenyl-4-carbonitrile] | 175 nM |
